Reference: publication PMC4045772, “Structure of the BTB Domain of Keap1 and Its Interaction with the Triterpenoid Antagonist CDDO” (PLoS ONE, 2014)

Biological target: T1, Keap1 (Homo sapiens, UniProt Q14145)
T1 construct: BTB plus part of BACK domain, residues 35-235, uncleaved N-terminal His-tag, E. coli BL21(DE3); AlphaScreen displacement of Cul3 (Cul3/Rbx1)
Test: X-ray co-crystal structure ([…] Å) of the covalent complex; AlphaScreen inhibition of Cul3 binding with purified Keap1 […]

T1 sequence (P62877 whole entry, the tested form may be a part): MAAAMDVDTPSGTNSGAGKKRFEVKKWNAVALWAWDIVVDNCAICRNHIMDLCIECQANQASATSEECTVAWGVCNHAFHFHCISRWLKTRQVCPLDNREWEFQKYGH
T1 sequence (Q14145 35-235): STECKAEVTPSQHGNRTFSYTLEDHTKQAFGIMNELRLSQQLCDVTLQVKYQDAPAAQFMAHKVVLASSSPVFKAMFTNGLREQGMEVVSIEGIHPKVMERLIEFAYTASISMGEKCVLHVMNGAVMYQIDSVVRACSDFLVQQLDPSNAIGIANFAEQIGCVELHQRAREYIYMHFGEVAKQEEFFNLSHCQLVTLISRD
T1 sequence (Q13618 2-768, further chain): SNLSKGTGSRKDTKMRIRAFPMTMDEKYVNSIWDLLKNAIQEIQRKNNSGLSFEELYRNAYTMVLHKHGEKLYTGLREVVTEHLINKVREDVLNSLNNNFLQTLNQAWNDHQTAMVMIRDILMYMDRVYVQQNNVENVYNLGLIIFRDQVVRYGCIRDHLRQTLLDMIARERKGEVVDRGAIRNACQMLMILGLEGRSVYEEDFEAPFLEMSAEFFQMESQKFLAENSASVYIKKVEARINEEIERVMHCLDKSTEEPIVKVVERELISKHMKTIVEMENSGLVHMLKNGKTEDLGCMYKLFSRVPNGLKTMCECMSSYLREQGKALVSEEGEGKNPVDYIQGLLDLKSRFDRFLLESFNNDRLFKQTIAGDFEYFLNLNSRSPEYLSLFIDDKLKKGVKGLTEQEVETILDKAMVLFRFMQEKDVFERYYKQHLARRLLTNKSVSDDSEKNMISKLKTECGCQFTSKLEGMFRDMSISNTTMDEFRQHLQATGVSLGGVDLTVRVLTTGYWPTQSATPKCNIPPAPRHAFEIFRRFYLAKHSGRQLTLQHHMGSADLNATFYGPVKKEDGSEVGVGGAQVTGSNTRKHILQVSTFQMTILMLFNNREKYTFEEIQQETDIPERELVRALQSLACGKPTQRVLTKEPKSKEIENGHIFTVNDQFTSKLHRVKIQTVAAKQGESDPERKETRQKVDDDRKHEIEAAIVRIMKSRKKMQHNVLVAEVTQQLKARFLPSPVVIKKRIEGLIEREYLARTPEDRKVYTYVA

Question: For `CC1(C)CC[C@]2(C(=O)O)CC[C@]3(C)[C@H](C(=O)C=C4[C@@]5(C)C=C(C#N)C(=O)C(C)(C)[C@@H]5CC[C@]43C)[C@@H]2C1` [CDDO, 2-cyano-3,12-dioxooleana-1,9-dien-28-oic-acid], which IC50 is on record?
Answer: < 100 nM
